In patent EP1101492A1, “NOVEL REMEDIES FOR ALLERGIC DISEASES” (FUJI YAKUHIN KOGYO KABUSHIKI KAISHA, priority 1998, dated 2000):
Values joined by “and” are separate entries in the source; they are usually repeats but may differ in a detail not shown here. Identical values can stand only once.

Assays:
[1] = test system: mouse experimental atopic dermatitis models; experiment: Auricle edema in experimental atopic dermatitis model (anti-DNP IgE sensitization, DNFB elicitation); format: in vivo, Balb/c mice; details: for % Inhibition vLPR: auricle edema Day 7 post-elicitation
NC/Jic mice = experiment: Spontaneously manifested allergic dermatitis in NC/Jic mice (ointment); format: in vivo
Method: Compound No. 130 was well blended with an equivalent mixture of polyethylene glycol 400 and polyethylene glycol 4000 to give an approximately homogeneous product. Thus, an ointment containing the test compound at a rate of 0.1% was prepared. For control groups, an ointment base alone was employed.
Male NC/Jic mice (body weight, 24.1 to 31.9 g; age, 12 to 24 weeks old; supplier, Clea Japan, Inc.) were checked for their health after purchase. Immediately after the health check, the mice were housed under conventional conditions until dermatitis occurred. Mouse heads surrounding auricle portions were observed by eye once daily during the preparatory housing and, after a start in painting with ointments, once daily prior to painting. The severity of spontaneous dermatitis was scored according to a pre-assigned sore table (Table 8) for the observation of dermatitis. Animals seriatim used in the experiment were selected from those showing signs of dermatitis with score 1 or 2 for 3 consecutive days or longer.
The ointment was warmed to about 37°C prior to administration, and open-painted onto diseased sites at 100 mg/dosage/day. Seven weeks were set as a drug application period.

Body weight gain in mice = details: test compounds 60 mg/kg s.c., prednisolone 10 mg/kg i.p., once a day for 6 days (Days 0-5), average ± standard deviation
Method: Accordingly, for assessing the side-effect each of the following test compounds an action on body weight gains was examined.
Next the mice were measured for their body weight. Each body weight gain was calculated on Days 5, 7 and 10 post-administration based on the body weight just prior to administration.

CNC(=O)[C@H](Cc1ccc(NC(=N)N)cc1)NC(=O)[C@H](CC(C)C)C(CCCc1ccccc1)C(=O)NO (single isomer, unassigned) [Compound No. 130, N-[4-(N-Hydroxyamino)-2(R)-isobutyl-3(R or S)-(3-phenyltrimethylene)succinyl)-L-4'-guanidophenylalanine-N-methylamide 1 acetate]
inhibitory efficacy on IgE-mediated auricle edema (FIG. 7) ([1]; 50 µg/ear/dose in ethanol painted twice a day, 1 hour pre-elicitation, 0.25, 3, 4, 5 and 6 days post-elicitation): endowed with an inhibitory activity on edemas in any of IPR, LPR, and vLPR | inhibitory efficacy on IgE-mediated auricle edema (FIG. 6) ([1]; 60 mg/kg s.c. 24 and 2 hours prior to elicitation only, compared with prednisolone 10 mg/kg i.p., IPR 1 hour, LPR 1 day, vLPR 7 days): edema-inhibitory activity equivalent to that of prednisolone in IPR and slightly and markedly higher than that of prednisolone in LPR and vLPR, respectively | % Inhibition IPR ([1]; auricle edema 1 hour post-elicitation, test compounds 60 mg/kg s.c., prednisolone 10 mg/kg i.p., once a day, 24 & 2 hours prior to DNFB-elicitation, vs untreated group): 64.4% | % Inhibition LPR ([1]; auricle edema Day 1 post-elicitation, test compounds 60 mg/kg s.c., prednisolone 10 mg/kg i.p., once a day, 24 & 2 hours prior to DNFB-elicitation, vs untreated group): 51.3% | % Inhibition vLPR ([1]; test compounds 60 mg/kg s.c., prednisolone 10 mg/kg i.p., daily from 3 to 6 days after DNFB-elicitation): 52.7% | % Inhibition vLPR ([1]; test compounds 60 mg/kg s.c., prednisolone 10 mg/kg i.p., daily from 1 day prior to through 5 days after DNFB-elicitation): 79.0% | Dermatitis Score (Average ± S. D.*) (NC/Jic mice; 0.1 % ointment, 100 mg/dosage/day for seven weeks, score (0-4) on Day 49, 3 animals, ointment base 3.7 ± 0.6): 2.3 ± 1.5 | scratching actions (individual animals) (NC/Jic mice; 0.1% ointment, counted for 30 minutes before painting, Days 47 to 48, ointment base 126, 138, 206): 19 scratching actions and 81 scratching actions and 177 scratching actions | scratching actions (average) (NC/Jic mice; 0.1% ointment, counted for 30 minutes before painting, Days 47 to 48, ointment base average 157): 92 scratching actions | Body Weight Gain, Observation Day 5 (Body weight gain in mice; non-administered 0.50± 0.23): 0.57± 0.61 | Body Weight Gain, Observation Day 7 (Body weight gain in mice; non-administered 0.80± 0.48): 0.77± 0.55 | Body Weight Gain, Observation Day 10 (Body weight gain in mice; non-administered 1.07± 0.58): 1.20± 0.26
